Source: ChEMBL document CHEMBL4393658, “Fluorinated indole-imidazole conjugates: Selective orally bioavailable 5-HT7 receptor low-basicity agonists, potential neuropathic painkillers” (Eur J Med Chem, 2019)

How the values were obtained:
[1] = Drug uptake in CD-1 mouse brain at […] , iv by LC/MS/MS analysis; assay type: ADME, organism-based; settings: in vivo
[2] = Bioavailability in CD-1 mouse at […], ip by LC-MS/MS analysis; assay type: ADME, organism-based; settings: in vivo
[3] = Half life in CD-1 mouse by LC-MS/MS analysis; assay type: ADME; settings: in vivo
[4] = Ratio of drug level in CD-1 mouse brain to plasma by LC-ESI/MS/MS analysis; assay type: ADME; settings: brain and plasma
Mus musculus = experiment: Ratio of half life in CD-1 mouse at […], ip to half life in mouse at […], ig; assay type: ADME, organism-based; settings: in vivo
[5] = Cmax in CD-1 mouse brain at […], ip by LC-MS/MS analysis; assay type: ADME, organism-based; set-up: dose 2.5 mg/kg, route intraperitoneal
[6] = Drug uptake in CD-1 mouse brain at […] , ip by LC/MS/MS analysis; assay type: ADME, organism-based; settings: in vivo
[7] = Tmax in CD-1 mouse at […], ip by LC-MS/MS analysis; assay type: ADME, organism-based; settings: in vivo
[8] = Bioavailability in CD-1 mouse at […], ig by LC-MS/MS analysis; assay type: ADME, organism-based; settings: in vivo, po
[9] = Volume of distribution at steady state in CD-1 mouse at […] by LC-MS/MS analysis; assay type: ADME, organism-based; settings: in vivo, read-out: Vdss
[10] = Tmax in CD-1 mouse brain at […], ip by LC-MS/MS analysis; assay type: ADME, organism-based
[11] = Half life in CD-1 mouse at […], iv by LC-MS/MS analysis; assay type: ADME, organism-based; settings: in vivo
[12] = Volume of distribution in CD-1 mouse at […], ip by LC--MS/MS analysis; assay type: ADME, organism-based; settings: in vivo
[13] = Drug uptake in CD-1 mouse brain at […] , ig by LC/MS/MS analysis; assay type: ADME, organism-based; settings: in vivo, po
[14] = Brain to plasma distribution coefficient in CD-1 mouse; assay type: ADME, organism-based; settings: brain and plasma

In the case of `CCn1cncc1-c1c[nH]c2ccc(I)c(F)c12.Cl`, the Drug uptake [1] is reported as “Active”, the bioavailability [2] is reported as 39% and the half-life [3] is reported as 3.37 h. It also gave a Kp [4] of 1.88 to 4.76, a Ratio (Mus musculus) of 2 and a Cmax [5] of 1070 ng/g. For the same compound, the Drug uptake [6] was “Active”, the Tmax [7] was 5 min and the bioavailability [8] was 24%. For the same compound, the Vd [9] was 2.8 L/kg, the Tmax [10] was 0.5 h and the half-life [11] was 3.17 h. The Vd [12] was 33.5 L/kg, the Drug uptake [13] was “Active” and the Kp [14] was 3.48.
